Laboratory results reported in paper PMC5707067, “Farnesyl phenolic enantiomers as natural MTH1 inhibitors from Ganoderma sinense” (Oncotarget, 2017).

Experiments:
MTH1 in SW620 cells = target: T1, MTH1 in SW620 cells (Homo sapiens, UniProt P36639); assay: Cellular thermal shift assay (CETSA); assay type: cell-based; settings: 30 μM, 12 hours, 44-54°C, vs DMSO, Western blot
T1 construct: endogenous in cells; host or cells: SW620
Protocol: The cellular thermal shift assay (CETSA) was recently developed to further confirm the interaction between the target and the compound in vitro by Western blot assay. CETSA was applied based on the principles that the ligand binding gave rise to the thermal stabilization of target proteins. The thermal stability of MTH1 in SW620 cells was tested at the temperature range of 44-54°C after the pretreatment of compound 1 for 12 hours (Figure 6E and 6F). Correspondingly, the control cells were treated with DMSO. […] Compared with the control group, the thermal stability of MTH1 protein in compound 1 pretreated cells was better under the same temperature condition.
CETSA was developed as a method to directly detect the binding capacity of compounds with targets at the cellular level, based on the principle of ligand-induced target protein stabilization. […] Subsequently, cells were analysed by Western blot assay.
The harvested cells were lysed with liquid nitrogen and the freeze-thaw cycles were repeated twice. […] Proteins was quantified by Bradford reagent (Bio-Rad, USA). The same amount of proteins (20-40 μg) were loaded onto 15% SDS-PAGE gels and transferred to polyvinylidene difluoride membranes (PVDF) (Millipore, USA) and analyzed using the MTH1-antibody (Proteintech) at a concentration of 1: 500. […]

[1] = test system: MTH1 siRNA transfected SW620 cells; assay: CCK8 growth assay in MTH1 siRNA transfected cells; assay type: cell-based, human
Protocol: In order to study whether the cytotoxicity of the farnesyl phenolic compounds was due to the inhibition of MTH1, the expression of endogenous MTH1 was knocked down in cancer cells. SW620 cell lines were transfected with MTH1 siRNA (#1, #2 and #3), [2] while the control was transfected with non-targeting siRNA (NT). The expression levels of MTH1 were measured by Western blot assay (Figure 6A and 6B), both siRNA #2 and #3 knocked down expressions of MTH1 in SW620 cells. The effects of compound 1 on the growth of MTH1 siRNA (#2 and #3) and non-targeting siRNA transfected cells were assessed by CCK8 assay.
Figure 6 The specific binding of compound 1 to the MTH1 protein leads to cell growth inhibition (A, B) Western blot analysis and optical density analysis for the expression of MTH1 for the siRNA transfected cells. MTH1 siRNA #2 and #3 were both knocked down in SW620 cells compared with the non-target siRNA (NT). (C) The effects of compound 1 on the growth of MTH1 siRNA (#2 and #3) and non-targeting siRNA transfected cells were assessed by CCK8 assay. […] (D) The effects of compounds 1 on normal tissue cell lines [human hepatic cells (Lo2), African green monkey kidney vero cells (Vero)]. (E, F) Cellular thermal shift assay (CETSA) confirmed the binding capacity of compound 1 with MTH1 at the cellular level. […]

MTH1 = MTH1 (Homo sapiens, UniProt P36639); assay: Microscale thermophoresis (MST) binding assay
Protocol: Microscale thermophoresis method (MST) was employed to assay the binding affinity between the compounds and MTH1. […] The dissociation constant Kd values were automatically calculated by using the NT Analysis software (Nano Temper Technologies, München, Germany).
Recombinant human MTH1 was labeled with the Monolith NT™ Protein Labeling Kit RED (Cat#L001) according to the supplied labeling protocol [32]. Labelled MTH1 was kept constant at 100 nM, while all samples tested were diluted in a 20 mM HEPES (pH 7.5) and 0.05 (v/v) % Tween-20. Compounds were diluted in 12 dilution steps covering the range from 500 μM to 200 nM. After 10 min incubation at room temperature about 37°C, samples were loaded into Monolith™ standard-treated capillaries and the thermophoresis was measured at 25°C after 30 min incubation on a Monolith NT.115 instrument (NanoTemper Technologies, München, Germany). Laser power was set to 20% using 30 seconds on-time. The LED power was set to 100%. The dissociation constant Kd values were fitted by using the NTAnalysis software (NanoTemper Technologies, München, Germany). The Kd value of the binding was obtained in two ways. The first way was calculated by thermophoresis curve when there was no fluorescent change during the initial fluorescence scanning. The second way was calculated from the initial fluorescence scanning curve when compounds bound in the sites which directly interfered the fluorescence.

SW620 cells = assay: EdU cell proliferation assay; assay type: cell-based, human; settings: 50 μM or 150 μM vs control, P<0.001
Protocol: EdU cell proliferation assays were carried out to detect the effects of compounds on DNA replication. EdU (5-Ethynyl-2- deoxyuridine), a thymidine analog, can penetrate into the replicating DNA molecule. Based on the specific response of EdU and fluorescent dyes, DNA replication activity could be detected.
SW620 cells were pretreated with 0, 50, 150 μM of compound 1, respectively. Dissociated cells were handled with EdU cell proliferation kit (RiboBio) according to the manuscript by according to the manufacturer's instructions. Then the morphology was observed by fluorescence microscopy (Zeiss, OBSERVER D1/AX10 cam HRC).

SW620 cells (53BP1 foci) = assay: 53BP1 foci immunofluorescence; assay type: cell-based, human; settings: 50 μM, 24 h vs control, P<0.01
Protocol: Meanwhile, MTH1 could prevent the mispairing of bases during replication and transversion mutations. Presumably, its inhibitors could cause DNA damage. P53 binding protein 1 (p53-binding, protein 1, 53BP1) is an important regulatory factor in response to double strand breaks.
Cells which adhered to glass coverslips were treated with DMSO or compounds (50 μM) for 24 h. Then cells were washed with PBS and then fixed with 3% paraformaldehyde in PBS for 20 min […]. Fixed cells were rinsed with PBS and incubated with penetrating agent (0.5% Triton-X-100) in PBS for 5 min. Next, cells were stained with an anti-53BP1 monoclonal antibody (abcam, diluted 1:250). Then the coverslips were rinsed with PBS at least 3 times andincubated with an Alexa Fluor 568 goat anti-rabbit IgG secondary antibody. After PBS rinsing, coverslips were stained with DAPI (sigma). Then the morphology was observed by confocal microscopy (Zeiss, OBSERVER D1/AX10 cam HRC).

thermal stability of MTH1 protein (MTH1 in SW620 cells): better
Kd (MTH1): 4.71 ± 0.686 µM
SMILES: CO[C@]1(c2cc(O)cc(O)c2)C=C(CCCC(CO)CC/C=C(\C)COC(=O)/C=C/c2ccc(O)cc2)C(=O)O1 (stereo partly drawn) [Compound 1, (5R)-3-{9-[(E)-coumaroyl]-4-hydroxymethyl-8-methyl-7-nonene}-5-(3,5-dihydroxyphenyl)-5-methoxy-2(5H)-furanone]
growth inhibition of MTH1 siRNA (#2 and #3) vs non-targeting siRNA transfected cells [1]: resistant to the growth inhibition
percentage of EdU+ cells (SW620 cells): significantly deceased
53BP1 foci formation (SW620 cells (53BP1 foci)): significantly aggregated
